Reference: US8080423B2, “Reagent containing protease reaction promoter and/or colorant stabilizer” (Asahi Kasei Pharma Corporation, priority 2004, dated 2011)

Experiments:
Format in all cases: physicochemical
[1] = Screening of stabilizer for colorant, DA64 (Example 13); conditions: 37° C.; for blank (distilled water) change in absorbance: DA-64, 750 nm, additives at conc. (1%; IDA 1 mM; Zn, Al 0.1 mM; ferrocyanide 0.01 mM; sorbitol 5%; DMSO 10%); for change in absorbance when 500 μM of hydrogen peroxide was measured: DA-64
Description: (§1) The following substances were used as test samples. Note that concentrations described in parentheses each represent a final concentration of the substance in the reagent R-1.
(§2) Tween-20 (1%), Brij35 (1%), Triton X-100 (1%), deoxycholic acid (1%), imino-diacetic acid (IDA; 1 mM), ZnSO4 (0.1 mM), AlCl3 (0.1 mM), potassium ferrocyanate (0.01 mM), sorbitol (5%), glucose (5%), sodium nitrite (2 mM), dimethylsulfoxide (DMSO; 10%) (those substances are manufactured by Wako Pure Chemical Industries, Inc.), 2-hydroxypropyl-β-cyclodextrin (2HP β CD; 0.5%, 2%, 5%) and methyl-β-cyclodextrin (M β CD; 0.5%, 2%, 5%) (those substances are manufactured by Nihon Shokuhin Kako Co., Ltd.).
(§3) 500 μl of the R-1 reagent and 500 μl of the R-2 which had been incubated to 37° C. were mixed. The mixture was incubated to 37° C. for 2 minutes, and absorbance thereof (A0) was measured. The mixture was added with 10 μl of 500 μM hydrogen peroxide or distilled water. The whole was incubated to 37° C., and absorbance exactly 5 minutes after the addition of hydrogen peroxide (A1) was measured, to calculate a change in absorbance ΔA (A1-A0). The absorbance was measured using a wavelength of 750 nm when DA64 was used as the colorant, a wavelength of 660 nm when DA67 was used as the colorant, and a wavelength of 570 nm when 4-AA-TOOS was used as the colorant.
(§4) Immediately after the preparation of the reagent, the reagent was preserved at 37° C. for 2 days and 9 days, and measurement of sensitivity of a blank which was distilled water and of hydrogen peroxide was performed.

[2] = Screening of stabilizer for colorant, DA67 (Example 13); conditions: 37° C.; for blank (distilled water) change in absorbance: DA-67, 660 nm; for change in absorbance when 500 μM of hydrogen peroxide was measured: DA-67
Description: as §1, §2, §3, §4

[3] = Screening of stabilizer for colorant, MBTH-TOOS (Example 13); conditions: MBTH-TOOS, 37° C.; for blank (distilled water) change in absorbance: 570 nm, additives at conc. (1%; IDA 1 mM; Zn, Al 0.1 mM; ferrocyanide 0.01 mM; sorbitol 5%; DMSO 10%)
[4] = Screening of stabilizer for colorant, overall statements (Example 13); conditions: Tables 2-1 and 2-2
Description: as §2, §3, §4

[5] = 0 days, additives at conc. (1%; IDA 1 mM; Zn, Al 0.1 mM; ferrocyanide 0.01 mM; sorbitol 5%; DMSO 10%)
[6] = 2 days, additives at conc. (1%; IDA 1 mM; Zn, Al 0.1 mM; ferrocyanide 0.01 mM; sorbitol 5%; DMSO 10%)
[7] = 9 days, additives at b284 conc. (Zn, Al 0.1 mM; ferrocyanide 0.01 mM)

Substance | blank (distilled water) change in absorbance ([1]; 0 days) [Abs] | blank (distilled water) change in absorbance ([1]; 2 days) [Abs] | blank (distilled water) change in absorbance ([1]; 9 days) [Abs] | change in absorbance when 500 μM of hydrogen peroxide was measured ([1]; 0 days, cyclodextrin 0.5%) | change in absorbance when 500 μM of hydrogen peroxide was measured ([1]; 0 days, cyclodextrin 2.0%) | change in absorbance when 500 μM of hydrogen peroxide was measured ([1]; 0 days, cyclodextrin 5.0%) | change in absorbance when 500 μM of hydrogen peroxide was measured ([1]; 2 days, cyclodextrin 0.5%) | change in absorbance when 500 μM of hydrogen peroxide was measured ([1]; 2 days, cyclodextrin 2.0%) | change in absorbance when 500 μM of hydrogen peroxide was measured ([1]; 2 days, cyclodextrin 5.0%) | change in absorbance when 500 μM of hydrogen peroxide was measured ([1]; 9 days, cyclodextrin 0.5%) | change in absorbance when 500 μM of hydrogen peroxide was measured ([1]; 9 days, cyclodextrin 2.0%) | change in absorbance when 500 μM of hydrogen peroxide was measured ([1]; 9 days, cyclodextrin 5.0%) | blank (distilled water) change in absorbance [2, 5] [Abs] | blank (distilled water) change in absorbance [2, 6] [Abs] | blank (distilled water) change in absorbance [2, 7] [Abs] | change in absorbance when 500 μM of hydrogen peroxide was measured ([2]; 0 days, cyclodextrin 0.5%) | change in absorbance when 500 μM of hydrogen peroxide was measured ([2]; 0 days, cyclodextrin 2.0%) | change in absorbance when 500 μM of hydrogen peroxide was measured ([2]; 0 days, cyclodextrin 5.0%) | change in absorbance when 500 μM of hydrogen peroxide was measured ([2]; 2 days, cyclodextrin 0.5%) | change in absorbance when 500 μM of hydrogen peroxide was measured ([2]; 2 days, cyclodextrin 2.0%) | other results
2-hydroxypropyl-β-cyclodextrin [2HPβCD] | −0.007 | 0.007 | 0.010 | 0.375 | 0.386 | 0.385 | 0.315 | 0.322 | 0.326 | 0.251 | 0.269 | 0.271 | 0.119 | 0.762 | 1.822 | 0.531 | 0.522 | 0.528 | 0.301 | 0.306 | change in absorbance when 500 μM of hydrogen peroxide was measured ([2]; 2 days, cyclodextrin 5.0%): 0.309; change in absorbance when 500 μM of hydrogen peroxide was measured ([2]; 9 days, cyclodextrin 0.5%): 0.277; change in absorbance when 500 μM of hydrogen peroxide was measured ([2]; 9 days, cyclodextrin 2.0%): 0.279; change in absorbance when 500 μM of hydrogen peroxide was measured ([2]; 9 days, cyclodextrin 5.0%): 0.281; blank (distilled water) change in absorbance ([3]; 0 days): 0.166 Abs; blank (distilled water) change in absorbance ([3]; 2 days): 0.815 Abs; change in absorbance when 500 μM of hydrogen peroxide was measured ([3]; 0 days, cyclodextrin 0.5%): 0.199; change in absorbance when 500 μM of hydrogen peroxide was measured ([3]; 0 days, cyclodextrin 2.0%): 0.200; change in absorbance when 500 μM of hydrogen peroxide was measured ([3]; 0 days, cyclodextrin 5.0%): 0.203; change in absorbance when 500 μM of hydrogen peroxide was measured ([3]; 2 days, cyclodextrin 0.5%): 0.145; change in absorbance when 500 μM of hydrogen peroxide was measured ([3]; 2 days, cyclodextrin 2.0%): 0.155; change in absorbance when 500 μM of hydrogen peroxide was measured ([3]; 2 days, cyclodextrin 5.0%): 0.159; effect on the blank during preservation (in words) [4]: suppressing effects on the blank
methyl-β-cyclodextrin [MβCD] | −0.01 | 0.005 | 0.006 | 0.371 | 0.376 | 0.365 | 0.302 | 0.309 | 0.315 | 0.266 | 0.271 | 0.273 | 0.133 | 0.657 | 1.430 | 0.516 | 0.519 | 0.515 | 0.355 | 0.361 | change in absorbance when 500 μM of hydrogen peroxide was measured ([2]; 2 days, cyclodextrin 5.0%): 0.364; change in absorbance when 500 μM of hydrogen peroxide was measured ([2]; 9 days, cyclodextrin 0.5%): 0.306; change in absorbance when 500 μM of hydrogen peroxide was measured ([2]; 9 days, cyclodextrin 2.0%): 0.311; change in absorbance when 500 μM of hydrogen peroxide was measured ([2]; 9 days, cyclodextrin 5.0%): 0.323; blank (distilled water) change in absorbance ([3]; 0 days): 0.115 Abs; blank (distilled water) change in absorbance ([3]; 2 days): 0.757 Abs; change in absorbance when 500 μM of hydrogen peroxide was measured ([3]; 0 days, cyclodextrin 0.5%): 0.175; change in absorbance when 500 μM of hydrogen peroxide was measured ([3]; 0 days, cyclodextrin 2.0%): 0.18; change in absorbance when 500 μM of hydrogen peroxide was measured ([3]; 0 days, cyclodextrin 5.0%): 0.181; change in absorbance when 500 μM of hydrogen peroxide was measured ([3]; 2 days, cyclodextrin 0.5%): 0.135; change in absorbance when 500 μM of hydrogen peroxide was measured ([3]; 2 days, cyclodextrin 2.0%): 0.136; change in absorbance when 500 μM of hydrogen peroxide was measured ([3]; 2 days, cyclodextrin 5.0%): 0.145; effect on the blank during preservation (in words) [4]: suppressing effects on the blank
